{"source": "patent US20060029674A1", "about": "“Stable amorphous Cefdinir” (priority 2004, published 2006)", "key": {"[1]": {"assay": "Glass transition temperature (Tg) by thermally stimulated current spectroscopy", "assay_type": "physicochemical", "experimental": "The glass transition temperature (Tg) determined by thermally stimulated current spectroscopy was 67° C. This value of 67° C. is considerably higher than ambient temperature, and as a rule of thumb high Tg values are desirable for room temperature stability.\nThe glass transition temperature (Tg) determined by thermally stimulated current spectroscopy was 102° C. […] The higher Tg observed for the cefdinir-EPO sample relative to the individual components further confirms specific interaction.\nThe glass transition temperature (Tg) determined by thermally stimulated current spectroscopy was 95° C."}, "[2]": {"assay": "Physical stability of the isolated amorphous material", "assay_type": "physicochemical", "conditions": "isolated by evaporating a methanolic solution", "excerpt": "Amorphous Cefdinir was isolated by evaporating a methanolic solution of cefdinir hydrate. […] Stable amorphous Cefdinir with Eudragit EPO was made and isolated by evaporating a methanolic solution. […] Amorphous cefdinir with PVP was made and isolated by evaporating a methanolic solution."}, "[3]": {"conditions": "material taught in U.S. Pat. No. 4,559,334; cited from earlier work"}}, "data": [{"compound": "C=CC1=C(C(=O)O)N2C(=O)C(NC(=O)C(=NO)c3csc(N)n3)[C@H]2SC1", "note": "(single isomer, unassigned) [Amorphous Cefdinir, 7-[2-(2-aminothiazol-4-yl)-2-hydroxyiminoacetamido]-3-vinyl-3-cephem-4-carboxylic acid (syn isomer)]", "values": [{"measurement": "glass transition temperature (Tg)", "setting": "[1]", "value": 67, "unit": "°C"}, {"measurement": "physical stability of the amorphous material", "setting": "[2]", "value": "physically stable"}]}, {"compound": "C=CC1=C(C(=O)O)N2C(=O)[C@@H](NC(=O)/C(=N\\O)c3csc(N)n3)[C@H]2SC1", "note": "[crystalline-like amorphous material]", "values": [{"measurement": "stability of prior-art amorphous material", "setting": "[3]", "value": "unstable"}]}]}
